Measured values as given in PMC8456958, “Selective Bacterial Targeting and Infection‐Triggered Release of Antibiotic Colistin Conjugates” (Angewandte Chemie (International Ed. in English), 2021).

Columns and labels:
[1] = test system: human neutrophil granulocytes (PMN); assay: Activation of human neutrophil granulocytes (CD66b, flow cytometry); assay type: cell-based; settings: 0.1 μM fMLP, 1 h at 37 °C with shaking, FITC-labeled anti CD66b antibody; three independent experiments
Protocol: HPLC-MS measurements were carried out in triplicate. Data from MRM measurements were analyzed with Skyline (vers. 18.3, MacCoss Laboratory, University of Washington).
Isolation of Neutrophil Granulocytes from human blood
The MACSxpress Neutrophil Isolation Kit, human from Miltenyi Biotec (Bergisch-Gladbach, Germany) was employed. Fresh venous EDTA blood was processed within 1 h. 65 mg of the MACSxpress whole blood isolation cocktail (lyophilized powder) were mixed with 1 ml of buffer A (from the kit). Then 1 ml of buffer B (from the kit) was added, and the well-mixed cocktail was added to 4 ml of peripheral whole blood in a 15 ml tube. The mixture was gently inverted 3 times and mixed on a tube rotator at 50 rpm for 5 min at rt. The tube was placed, without cap, for 20 min into a strong magnetic field (neodymium magnets). The suspension containing the PMN was collected into a fresh 15 ml tube by careful pipetting. […]
All steps were carried out with cooled media (4 °C) and the vials were kept on ice. Freshly isolated neutrophil granulocytes in RPMI 1640 were counted, followed by centrifugation at 200 x g for 10 min at 4 °C. […]
50 µl of the diluted detection antibody (diluted with Reagent Diluent) with a final concentration of 250 ng/ml were added and incubated for 1.5 h at 37 °C. […] The absorbance was measured at 450 nm […]

[2] = test system: neutrophil granulocytes (PMN); assay: Release of neutrophil elastase from neutrophil granulocytes (ELISA); assay type: cell-based, human; settings: stimulation with 0.1 μM fMLP
Protocol: Figure 5 Cellular proof of concept for triggered antibiotic release from 6. a) Release of neutrophil elastase (NE) from neutrophil granulocytes. PMN were isolated and suspended in RPMI 1640. For activation, 0.1 μM fMLP was added. The samples were incubated for 1 h at 37 °C, centrifuged to remove cells, and the NE concentration was determined in the supernatant by ELISA. Values normalized to 1×10^6 cells mL^−1. Data are presented as the mean of 4 separate experiments. *p<0.03 compared to unactivated. b) Activity of NE after co‐cultivation of PMN with E. coli K12 in presence of 1 or 6. 5×10^5 cells mL^−1 of PMN were co‐cultivated with 8×10^6 cells mL^−1 of E. coli K12 (ratio of bacteria : PMN 16:1) for 1 h at 37 °C in RPMI 1640/HEPES‐NaCl 1:1. Data are presented as the mean of two separate experiments. c) Release of colistin from 6. […] After 1 h colistin concentrations were determined by HPLC–MS. […]
50 µl of the diluted detection antibody (diluted with Reagent Diluent) with a final concentration of 250 ng/ml were added and incubated for 1.5 h at 37 °C. […] The absorbance was measured at 450 nm together with a correction wavelength of 570 nm, the value of which was subtracted.
Calculation of results: All samples and standards were measured in duplicate. […]

Question: “N-Formyl-Met-Leu-Phe [fMLP, formyl‐methionyl‐leucyl‐phenylalanine]” was tested. Which “increase of the activation state marker CD66b” value [1] did it give?
Answer: 2.5 fold

Question: What about the “amount of elastase released by neutrophil granulocytes” value ([2]; RPMI 1640, 1 h, 37 °C, supernatant, ELISA, normalized to 1×10^6 cells mL^−1, mean of 4 experiments, basal 39) of the same substance?
Answer: 84 ng/mL

Question: And the “amount of elastase released, as activity” value ([2]; converted from ELISA amount, basal 2.5)?
Answer: 5.5 mU mL^−1
